Consider 1 compound from publication PMC9885526 (ACS Central Science, 2023).

pEC50: −log10 of the molar value.

In this test the test system is SARS-CoV-2 (Omicron variant). The experiment in a line: microbe, parasite or virus in culture. Conditions: Severe acute respiratory syndrome coronavirus 2, Caco-2. The format is cell-based.

Regarding `CC(C)(C)[C@H](NC(=O)C(F)(F)F)C(=O)N1C[C@H]2[C@@H]([C@H]1C(=O)N[C@H](C#N)C[C@@H]1CCNC1=O)C2(C)C` [PF-07321332, Nirmatrelvir], the pEC50 was 7.48.
